Results from ChEMBL document CHEMBL1134725, “2-(Anilinomethyl)imidazolines as alpha(1)-adrenoceptor agonists: the identification of alpha(1A) subtype selective 2'-carboxylic acid esters and amides” (Bioorg Med Chem Lett, 2001).

Legend:
[1] = target: T1, Alpha-1A adrenergic receptor (Homo sapiens) (UniProt P35348); assay: Efficacy against alpha 1A adrenoceptor in human expressed as phenylephrine response at the dose of 40 uM; assay type: functional
T1 sequence (whole entry): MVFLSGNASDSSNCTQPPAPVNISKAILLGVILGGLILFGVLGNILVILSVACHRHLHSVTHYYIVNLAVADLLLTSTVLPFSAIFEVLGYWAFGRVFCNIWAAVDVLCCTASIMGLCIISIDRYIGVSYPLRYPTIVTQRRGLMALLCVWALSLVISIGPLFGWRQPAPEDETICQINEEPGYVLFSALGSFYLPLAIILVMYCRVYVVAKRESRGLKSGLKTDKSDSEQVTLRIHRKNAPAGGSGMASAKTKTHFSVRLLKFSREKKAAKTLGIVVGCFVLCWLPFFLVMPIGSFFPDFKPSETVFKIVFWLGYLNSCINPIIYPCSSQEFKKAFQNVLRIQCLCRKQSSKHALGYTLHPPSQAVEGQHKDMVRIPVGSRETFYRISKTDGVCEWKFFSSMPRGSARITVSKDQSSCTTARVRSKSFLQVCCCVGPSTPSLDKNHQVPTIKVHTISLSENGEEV

[2] = target: T2, Alpha-1B adrenergic receptor (Homo sapiens) (UniProt P35368); assay: Efficacy against alpha 1B-adrenoceptor in human expressed as phenylephrine response at the dose of 40 uM.; assay type: functional
T2 sequence (whole entry): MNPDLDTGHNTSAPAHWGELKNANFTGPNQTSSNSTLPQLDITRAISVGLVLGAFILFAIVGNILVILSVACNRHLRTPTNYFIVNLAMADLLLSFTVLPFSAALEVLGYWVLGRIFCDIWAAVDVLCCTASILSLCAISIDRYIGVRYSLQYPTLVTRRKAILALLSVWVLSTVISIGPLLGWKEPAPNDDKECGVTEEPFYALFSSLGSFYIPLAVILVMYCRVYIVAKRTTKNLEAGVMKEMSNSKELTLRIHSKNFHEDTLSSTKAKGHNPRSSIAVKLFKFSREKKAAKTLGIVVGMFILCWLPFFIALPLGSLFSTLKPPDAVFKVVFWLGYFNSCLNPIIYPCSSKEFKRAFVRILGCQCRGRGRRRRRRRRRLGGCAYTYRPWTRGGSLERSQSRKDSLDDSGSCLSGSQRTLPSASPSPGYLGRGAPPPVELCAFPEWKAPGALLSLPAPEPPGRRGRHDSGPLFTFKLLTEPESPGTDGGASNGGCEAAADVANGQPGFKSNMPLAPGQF

[3] = target: T3, Alpha-1B adrenergic receptor (Homo sapiens, UniProt P35368); assay: Potency against cloned human alpha 1B adrenoceptor expressed in rat-1 fibroblasts.; assay type: functional
T3 sequence (P35368 whole entry): T2 sequence (whole entry)

[4] = target: T4, Alpha-1D adrenergic receptor (Homo sapiens) (UniProt P25100); assay: Tested for efficacy against alpha 1D-adrenoceptor in human expressed as phenylephrine response at the dose of 40 uM; assay type: functional
T4 sequence (whole entry): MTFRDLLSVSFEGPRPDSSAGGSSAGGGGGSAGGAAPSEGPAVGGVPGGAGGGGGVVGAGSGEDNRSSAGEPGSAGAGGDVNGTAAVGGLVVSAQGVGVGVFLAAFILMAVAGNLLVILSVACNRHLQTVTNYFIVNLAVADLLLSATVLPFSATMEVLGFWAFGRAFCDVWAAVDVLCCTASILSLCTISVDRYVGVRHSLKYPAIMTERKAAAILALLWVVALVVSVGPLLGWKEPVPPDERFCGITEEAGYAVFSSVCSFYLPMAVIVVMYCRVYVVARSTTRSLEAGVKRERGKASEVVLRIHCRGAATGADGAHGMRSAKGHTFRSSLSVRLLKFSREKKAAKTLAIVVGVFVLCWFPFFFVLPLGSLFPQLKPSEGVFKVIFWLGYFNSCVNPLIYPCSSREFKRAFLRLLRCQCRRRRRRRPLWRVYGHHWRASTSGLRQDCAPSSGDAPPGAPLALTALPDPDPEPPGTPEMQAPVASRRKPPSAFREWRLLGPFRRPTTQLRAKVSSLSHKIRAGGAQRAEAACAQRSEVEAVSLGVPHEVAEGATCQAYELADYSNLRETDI

[5] = target: T5, Alpha-1A adrenergic receptor (Homo sapiens, UniProt P35348); assay: Agonist potency against cloned human alpha 1A adrenoceptor expressed in rat-1 fibroblasts.; assay type: functional
T5 sequence (P35348 whole entry): T1 sequence (whole entry)

[6] = target: T6, Alpha-1D adrenergic receptor (Homo sapiens, UniProt P25100); assay: Potency against cloned human alpha 1D-adrenoceptor expressed in rat-1 fibroblasts.; assay type: functional
T6 sequence (P25100 whole entry): T4 sequence (whole entry)

[7] = target: T3, Alpha-1B adrenergic receptor; assay: Concentration required for 50% inhibition of binding against human Alpha-1B adrenergic receptor
[8] = target: T5, Alpha-1A adrenergic receptor; assay: Concentration required for 50% inhibition of binding against Alpha-1A adrenergic receptor in human
[9] = target: T6, Alpha-1D adrenergic receptor; assay: Concentration required for 50% inhibition of binding against human Alpha-1D adrenergic receptor

Row | Compound | Max [1] [%] | Max [2] [%] | EC50 [3] [µM] | Max [4] [%] | EC50 [5] [µM] | EC50 [6] [µM] | IC50 [7] [µM] | IC50 [8] [µM] | IC50 [9] [µM]
1 | c1ccc(C2CC2)c(OCC2=NCCN2)c1 [CIRAZOLINE] | 93 | 72 | 0.0631 | 31 | 0.0126 | – | – | – | –
2 | O=C(NC1CCC1)c1ccccc1NCC1=NCCN1 | – | – | > 5.01 | – | > 5.01 | > 5.01 | – | – | –
3 | O=C(OC1CCCC1)c1ccccc1NCC1=NCCN1 | 58 | – | > 5.01 | – | 0.0398 | > 5.01 | – | – | –
4 | CCC(C)NC(=O)c1ccccc1NCC1=NCCN1 (configuration not stated) | 82 | – | > 5.01 | – | 0.501 | > 5.01 | – | – | –
5 | CCCCNC(=O)c1ccccc1NCC1=NCCN1 | 103 | – | > 5.01 | – | 0.02 | > 5.01 | 1.95 | 0.468 | 1.48
6 | c1ccc2c(CC3=NCCN3)cccc2c1 [NAPHAZOLINE] | 72 | – | > 5.01 | – | 0.0631 | > 5.01 | – | – | –
7 | CCC(C)OC(=O)c1ccccc1NCC1=NCCN1 (configuration not stated) | 96 | – | > 5.01 | – | 0.00126 | > 5.01 | – | – | –
8 | O=C(NC1CCCC1)c1ccccc1NCC1=NCCN1 | – | – | > 5.01 | – | > 5.01 | > 5.01 | – | – | –
9 | O=C(OC1CCCCC1)c1ccccc1NCC1=NCCN1 | – | – | > 5.01 | – | > 5.01 | > 5.01 | – | – | –
10 | O=C(NC1CC1)c1ccccc1NCC1=NCCN1 | 99 | 50 | 0.251 | – | 0.0158 | > 5.01 | 2.24 | 1.05 | 1.7
11 | CCNC(=O)c1ccccc1NCC1=NCCN1 | 102 | 64 | 0.2 | 33 | 0.0126 | 0.0794 | – | – | –
12 | CC(C)OC(=O)c1ccccc1NCC1=NCCN1 | 100 | – | > 5.01 | – | 0.00316 | > 5.01 | 1.78 | 0.224 | 2
13 | Cc1cc(C(C)(C)C)c(O)c(C)c1CC1=NCCN1 | 74 | – | – | – | – | – | – | – | –
14 | CCN(C)C(=O)c1ccccc1NCC1=NCCN1 | 105 | 98 | 0.251 | 69 | 0.0501 | 0.631 | 10.5 | 2.04 | 6.76
15 | CCC(CC)OC(=O)c1ccccc1NCC1=NCCN1 | 94 | – | > 5.01 | – | 0.02 | > 5.01 | – | – | –
16 | CCCN(CC)C(=O)c1ccccc1NCC1=NCCN1 | 115 | – | > 5.01 | – | 0.1 | > 5.01 | – | – | –
17 | O=C(c1ccccc1NCC1=NCCN1)N1CCCC1 | 105 | 79 | 0.316 | – | 0.126 | > 5.01 | – | – | –
18 | CCN(CC)C(=O)c1ccccc1NCC1=NCCN1 | 105 | 32 | 2 | – | 0.0316 | > 5.01 | 5.89 | 0.851 | 6.61

Next, values leading:

Row | Max [1] [%] | Max [2] [%] | EC50 [3] [µM] | Max [4] [%] | EC50 [5] [µM] | EC50 [6] [µM] | IC50 [7] [µM] | IC50 [8] [µM] | IC50 [9] [µM] | Compound
19 | 114 | 63 | 0.0251 | 31 | 0.01 | 0.0158 | – | – | – | CCCCOC(=O)c1ccccc1NCC1=NCCN1
20 | 102 | 95 | 0.126 | 59 | 0.0501 | 0.316 | – | – | – | CC(C)NC(=O)c1ccccc1NCC1=NCCN1
21 | 110 | 107 | 0.000398 | 80 | 0.000794 | 0.000501 | – | – | – | COC(=O)c1ccccc1NCC1=NCCN1
22 | 104 | 93 | 0.0794 | 58 | 0.02 | 0.2 | – | – | – | CN(C)C(=O)c1ccccc1NCC1=NCCN1
23 | 104 | 105 | 0.158 | 41 | 0.0126 | 0.0631 | – | – | – | CCOC(=O)c1ccccc1NCC1=NCCN1
24 | 104 | 99 | 0.00158 | 115 | 0.00251 | 0.01 | 0.692 | 0.214 | 0.0891 | CNC(=O)c1ccccc1NCC1=NCCN1
25 | 105 | 106 | 0.0794 | 88 | 0.398 | 0.398 | – | – | – | O=C(c1ccccc1NCC1=NCCN1)N1CCCCC1
26 | 68 | 90 | 0.0794 | 59 | 0.501 | 0.251 | – | – | – | CC(C)COC(=O)c1ccccc1NCC1=NCCN1
27 | 58 | 90 | 0.0126 | 31 | 0.0794 | 0.0158 | – | – | – | CC(C)CNC(=O)c1ccccc1NCC1=NCCN1
28 | 96 | 81 | 0.0631 | – | 0.00794 | > 5.01 | – | – | – | CC(C)(C)OC(=O)c1ccccc1NCC1=NCCN1
29 | 104 | 77 | 0.0794 | 69 | 0.00794 | 0.158 | – | – | – | CCCNC(=O)c1ccccc1NCC1=NCCN1
